From US20200039973A1, “NOVEL 5-SUBSTITUTED IMIDAZOLYLMETHYL DERIVATIVES” (BAYER CROPSCIENCE AKTIENGESELLSCHAFT, priority 2016, published 2020) come the findings set out here.

The first data set can be described thus: Measurement of LogP values by HPLC on reversed phase columns (EEC directive 79/831 Annex V.A8). The data set is classed as physicochemical. The note with it: Table 1; method [a]: LC-UV, acidic range, 0.1% formic acid in water and acetonitrile as eluent. The procedure:
Measurement of LogP values was performed according to EEC directive 79/831 Annex V.A8 by HPLC (High Performance Liquid Chromatography) on reversed phase columns with the following methods: • ^[a] Log P value is determined by measurement of LC-UV, in an acidic range, with 0.1% formic acid in water and acetonitrile as eluent (linear gradient from 10% acetonitrile to 95% acetonitrile). • ^[b] Log P value is determined by measurement of LC-UV, in a neutral range, with 0.001 molar ammonium acetate solution in water and acetonitrile as eluent (linear gradient from 10% acetonitrile to 95% acetonitrile). • ^[c] Log P value is determined by measurement of LC-UV, in an acidic range, with 0.1% phosphoric acid and acetonitrile as eluent (linear gradient from 10% acetonitrile to 95% acetonitrile).
If more than one Log P value is available within the same method, all the values are given and separated by “+”.
Calibration was done with straight-chain alkan2-ones (with 3 to 16 carbon atoms) with known Log P values (measurement of Log P values using retention times with linear interpolation between successive alkanones). Lambda-max-values were determined using UV-spectra from 200 nm to 400 nm and the peak values of the chromatographic signals.
Take `N#Cc1cncn1CC(O)(Cc1ccc(Cl)cc1F)c1cc(F)ccc1F` (centres unmarked) [I-26]: the LogP was 3.07^[a].

Regarding `N#Cc1cncn1CC(O)(Cc1ccc(Cl)cc1F)c1ccc(F)cc1F` (centres unmarked) [I-07], the LogP is 3.17^[a].

For the compound `N#Cc1cncn1CC(O)(Cc1cccc(F)c1F)c1ccco1` (centres unmarked) [I-31], the LogP was 2.25^[a].

For the compound `N#Cc1cncn1CC(O)(Cc1ccccc1F)c1ccccc1` (centres unmarked) [I-08], the LogP is 2.51^[a].

Regarding `N#Cc1cncn1CC(O)(Cc1ccccc1Cl)c1cc(F)ccc1F` (centres unmarked) [I-28], the LogP is 2.92^[a].

Turning to `N#Cc1cncn1CC(O)(Cc1cccc(F)c1F)C1(c2ccccc2)CC1` (centres unmarked) [I-23], the LogP was 3.25^[a].

As for `N#Cc1cncn1CC(O)(Cc1ccc(F)cc1F)c1cc(F)ccc1F` (centres unmarked) [I-27], the LogP was 2.77^[a].

`N#Cc1cncn1CC(O)(Cc1ccc(F)cc1F)c1ccco1` (centres unmarked) [I-34, 3-[3-(2,4-difluorophenyl)-2-(2-furyl)-2-hydroxy-propyl]imidazole-4-carbonitrile] yielded a chromatographic logP of 2.32.

Take `N#Cc1cncn1CC(O)(Cc1cccc(F)c1F)c1ccccc1` (centres unmarked) [I-04]: the LogP is 2.40^[a].

Take `N#Cc1cncn1CC(O)(Cc1ccccc1F)c1cc(F)ccc1F` (centres unmarked) [I-25]: the LogP was 2.63^[a].

For `N#Cc1cncn1CC(O)(Cc1ccccc1F)C1(c2ccccc2)CC1` (centres unmarked) [I-14], the LogP is 3.18^[a].

For the compound `N#Cc1cncn1CC(O)(Cc1cccc(Cl)c1F)c1ccco1` (centres unmarked) [I-33], the LogP was 2.57^[a].

With `N#Cc1cncn1CC(O)(Cc1cccc(F)c1F)c1ccc(F)cc1F` (centres unmarked) [I-12], the LogP was 2.75^[a].

Turning to `N#Cc1cncn1CC(O)(Cc1ccc(F)cc1F)c1ccc(F)cc1F` (centres unmarked) [I-02], the LogP is 2.82^[a].

`N#Cc1cncn1CC(O)(Cc1ccccc1Cl)c1ccco1` (centres unmarked) [I-32]: the LogP was 2.45^[a].

Consider `N#Cc1cncn1CC(O)(Cc1ccccc1F)c1ccc(Cl)s1` (centres unmarked) [I-19], for which the LogP was 2.78^[a].

On to `Cc1cccc(CC(O)(Cn2cncc2C#N)c2ccc(F)cc2F)c1F` (centres unmarked) [I-11], for which the LogP was 2.98^[a].

With `N#Cc1cncn1CC(O)(Cc1ccc(F)cc1)c1ccccc1` (centres unmarked) [I-05], the LogP was 2.47^[a].

With `N#Cc1cncn1CC(O)(Cc1cccc(Cl)c1F)c1ccc(F)cc1F` (centres unmarked) [I-22], the LogP was 3.06^[a].

Take `N#Cc1cncn1CC(O)(Cc1ccc(Cl)cc1F)c1ccccc1` (centres unmarked) [I-18]: the LogP is 2.98^[a].

In the case of `N#Cc1cncn1CC(O)(Cc1ccccc1Cl)c1ccccc1` (centres unmarked) [I-17], the LogP is 2.70^[a].

As for `N#Cc1cncn1CC(O)(Cc1ccc(F)c(F)c1F)c1ccccc1` (centres unmarked) [I-21], the LogP was 2.57^[a].

In the case of `N#Cc1cncn1CC(O)(Cc1ccc(F)cc1F)c1ccccc1` (centres unmarked) [I-09], the LogP is 2.60^[a].

Turning to `N#Cc1cncn1CC(O)(Cc1ccccc1F)c1ccc(F)cc1F` (centres unmarked) [I-20], the LogP was 2.68^[a].

As to `N#Cc1cncn1CC(O)(Cc1ccc(F)cc1)c1ccc(F)cc1F` (centres unmarked) [I-24], the LogP is 2.73^[a].

As for `N#Cc1cncn1CC(O)(Cc1ccccc1Cl)C1(c2ccccc2)CC1` (centres unmarked) [I-15], the LogP is 3.44^[a].

Turning to `N#Cc1cncn1CC(O)(Cc1ccc(F)c(F)c1F)c1ccc(F)cc1F` (centres unmarked) [I-03], the LogP was 2.96^[a].

As for `N#Cc1cncn1CC(O)(Cc1ccc(F)cc1F)c1ccc(Cl)s1` (centres unmarked) [I-10], the LogP is 2.90^[a].

Consider `N#Cc1cncn1CC(O)(Cc1ccccc1Cl)c1ccc(F)cc1F` (centres unmarked) [I-01], for which the LogP was 3.00^[a].

Turning to `N#Cc1cncn1CC(O)(Cc1ccccc1F)c1ccco1` (centres unmarked) [I-30], the LogP is 2.15^[a].

Take `N#Cc1cncn1CC(O)(Cc1cccc(F)c1F)c1cc(F)ccc1F` (centres unmarked) [I-29]: the LogP was 2.73^[a].

Staying with this data set, now noted: Table 2 (formula XVIIa); method [a]: LC-UV, acidic range, 0.1% formic acid in water and acetonitrile as eluent.
In the case of `N#Cc1cncn1CC(=O)Cc1ccccc1Br` [XVIIa-06], the LogP was 2.02^[a].

In the case of `N#Cc1cncn1CC(=O)Cc1ccccc1Cl` [XVIIa-05], the LogP was 1.82^[a].

Regarding `N#Cc1cncn1CC(=O)Cc1ccc(Cl)cc1` [XVIIa-07], the LogP is 2.14^[a].

Turning to `N#Cc1cncn1CC(=O)Cc1ccccc1` [XVIIa-04], the LogP was 1.65^[a].

Take `N#Cc1cncn1CC(=O)Cc1ccccc1F` [XVIIa-03]: the LogP was 1.75^[a].

Consider `N#Cc1cncn1CC(=O)Cc1cccc(F)c1F` [XVIIa-02], for which the LogP is 1.87^[a].

The data set is the same for the next values; noted with them: reversed-phase HPLC column; Table 1; method [a]: LC-UV, acidic range, 0.1% formic acid in water and acetonitrile as eluent.
The compound `N#Cc1cncn1CC(O)(Cc1ccccc1)c1ccc(F)cc1F` (centres unmarked) [I-13, 3-[2-(2,4-difluorophenyl)-2-hydroxy-3-phenyl-propyl]imidazole-4-carbonitrile] had a chromatographic logP of 2.68.

`N#Cc1cncn1CC(O)(Cc1ccc(F)cc1F)C1(c2ccccc2)CC1` (centres unmarked) [I-06, 3-[3-(2,4-difluorophenyl)-2-hydroxy-2-(1-phenylcyclopropyl)propyl]imidazole-4-carbonitrile] gave a chromatographic logP of 3.29.

The compound `N#Cc1cncn1CC(O)(Cc1cccc(F)c1F)c1ccc(Cl)s1` (centres unmarked) [I-16, 3-[2-(5-chloro-2-thienyl)-3-(2,3-difluorophenyl)-2-hydroxy-propyl]imidazole-4-carbonitrile] had a chromatographic logP of 2.86.

The same data set, now with this note: reversed-phase HPLC column; Table 2 (formula XVIIa); method [a]: LC-UV, acidic range, 0.1% formic acid in water and acetonitrile as eluent.
On to `N#Cc1cncn1CC(=O)C1(c2ccccc2)CC1` [XVIIa-01, 3-[2-oxo-2-(1-phenylcyclopropyl)ethyl]imidazole-4-carbonitrile], for which the chromatographic logP was determined as 2.17.

What is called chromatographic logP is a lipophilicity value derived from retention on a column. High values mean higher lipophilicity, low ones lower lipophilicity.
